Values quoted from earlier work in patent publication US20080038252A1, “Histamine-Containing Composition for the Treatment of Allergic Diseases” (priority 2005, published 2008).

Test system: allergy animal model
Conditions: same amount as in the complex, administered alone to the allergy animal model (Yoshii)

## NCCc1c[nH]cn1 [histamine]
  anti-inflammatory effect: not produced
